Target: T1, PSMA-expressing LNCaP cells (Homo sapiens, UniProt Q04609)
T1 construct: PSMA-expressing LNCaP cells; endogenous in cells; host or cells: LNCaP
Assay: Binding competition assay against 3H-PSMA-617 on LNCaP cells
Summary of the method: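 Compounds added to LNCaP cells in growth medium, 2 h at 37 °C, 5% CO2. After two ice-cold PBS washes, cells lysed in 0.3 M NaOH and bound radioactivity measured by liquid scintillation counting.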

[1] = LNCaP cells, 10 nM 3H-PSMA-617, competing non-radiolabeled compound 10 nM, 2 h at 37° C., triplicates
[2] = LNCaP cells, 10 nM 3H-PSMA-617, competing non-radiolabeled compound 100 nM, 2 h at 37° C., triplicates

T1 sequence (Q04609 whole entry): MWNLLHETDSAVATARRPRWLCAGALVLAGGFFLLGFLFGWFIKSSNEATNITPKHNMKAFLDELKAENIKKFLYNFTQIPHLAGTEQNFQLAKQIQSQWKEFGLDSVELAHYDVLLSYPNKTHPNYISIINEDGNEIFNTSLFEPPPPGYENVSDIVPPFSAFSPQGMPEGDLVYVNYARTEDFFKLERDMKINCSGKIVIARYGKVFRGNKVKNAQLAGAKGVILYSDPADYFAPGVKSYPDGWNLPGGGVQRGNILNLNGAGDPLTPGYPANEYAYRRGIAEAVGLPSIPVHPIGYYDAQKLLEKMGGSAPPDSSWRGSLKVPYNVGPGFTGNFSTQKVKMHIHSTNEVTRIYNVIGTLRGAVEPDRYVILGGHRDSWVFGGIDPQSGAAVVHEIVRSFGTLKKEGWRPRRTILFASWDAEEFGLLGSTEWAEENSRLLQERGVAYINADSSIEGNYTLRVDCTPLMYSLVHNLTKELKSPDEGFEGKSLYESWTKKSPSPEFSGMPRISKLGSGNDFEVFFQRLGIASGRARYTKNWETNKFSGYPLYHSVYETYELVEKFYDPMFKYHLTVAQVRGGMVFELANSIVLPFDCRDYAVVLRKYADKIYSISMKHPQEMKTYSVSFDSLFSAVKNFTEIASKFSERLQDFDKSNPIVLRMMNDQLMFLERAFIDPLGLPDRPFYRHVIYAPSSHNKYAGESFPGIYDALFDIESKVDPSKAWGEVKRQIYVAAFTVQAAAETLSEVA

Row | SMILES | remaining activity at 0.01 µM [1] | remaining activity at 0.1 µM [2] | also measured
1 | COc1ccc(CC(NC(=O)[C@H]2CC[C@H](CN)CC2)C(=O)NCCCC[C@H](NC(=O)N[C@@H](CCC(=O)O)C(=O)O)C(=O)O)cc1OC (stereo partly drawn) [Example 19-A, N^6—{N-[(1r,4S)-4-(aminomethyl)cyclohexane-1-carbonyl]-3-methoxy-O-methyl-L-tyrosyl}-N^2-{[(1S)-1,3-dicarboxypropyl]carbamoyl}-L-lysine] | 84% | 79% | –
2 | O=C(O)CC[C@H](NC(=O)N[C@@H](CCCCNC(=O)[C@H](Cc1ccc2ccccc2c1)NC(=O)NCC1CCNCC1)C(=O)O)C(=O)O [Example 30-A, (5S,12S,16S)-5-[(naphthalen-2-yl)methyl]-3,6,14-trioxo-1-(piperidin-4-yl)-2,4,7,13,15-pentaazaoctadecane-12,16,18-tricarboxylic acid] | 136% | 96% | –
3 | NCc1ccc(C(=O)N[C@@H](Cc2ccc3ccccc3c2)C(=O)NCCCC[C@H](NC(=O)N[C@@H](CCC(=O)O)C(=O)O)C(=O)O)nc1 [Example 25-A, (3S,10S,14S)-1-[5-(aminomethyl)pyridin-2-yl]-3-[(naphthalen-2-yl)methyl]-1,4,12-trioxo-2,5,11,13-tetraazahexadecane-10,14,16-tricarboxylic acid] | 93% | 21% | competition against 3H-PSMA-617 on PSMA-expressing LNCaP cells (in words) (comparison between examples): improved competition in comparison to the cyclohexyl examples 1-A and 1-B
4 | O=C(O)CC[C@H](NC(=O)N[C@@H](CCCCNC(=O)[C@H](Cc1ccc2ccccc2c1)NC(=O)Cc1ccc(NC(=O)CN2CCN(CC(=O)O)CCN(CC(=O)O)CCN(CC(=O)O)CC2)cc1)C(=O)O)C(=O)O [Example 23-B, (4S,11S,15S)-4-[(naphthalen-2-yl)methyl]-2,5,13-trioxo-1-(4-{2-[4,7,10-tris(carboxymethyl)-1,4,7,10-tetraazacyclododecan-1-yl]acetamido}phenyl)-3,6,12,14-tetraazaheptadecane-11,15,17-tricarboxylic acid] | 66% | 18% | –
5 | NC[C@H]1CC[C@H](C(=O)N[C@H](Cc2ccc3c(c2)CCCO3)C(=O)NCCCC[C@H](NC(=O)N[C@@H](CCC(=O)O)C(=O)O)C(=O)O)CC1 [Example 38-A, N^6—{N-[(1r,4S)-4-(aminomethyl)cyclohexane-1-carbonyl]-3-(3,4-dihydro-2H-1-benzopyran-6-yl)-D-alanyl}-N^2-{[(1S)-1,3-dicarboxypropyl]carbamoyl}-L-lysine] | 140% | 106% | –
6 | NC[C@H]1CC[C@H](C(=O)N(Cc2cccc(=O)[nH]2)[C@@H](Cc2ccc3ccccc3c2)C(=O)NCCCC[C@H](NC(=O)N[C@@H](CCC(=O)O)C(=O)O)C(=O)O)CC1 [Example 21-A, (3S,10S,14S)-1-[(1r,4S)-4-(aminomethyl)cyclohexyl]-3-[(naphthalen-2-yl)methyl]-1,4,12-trioxo-2-[(6-oxo-1,6-dihydropyridin-2-yl)methyl]-2,5,11,13-tetraazahexadecane-10,14,16-tricarboxylic acid] | 70% | 58% | –
7 | O=C(O)CC[C@H](NC(=O)N[C@@H](CCCCNC(=O)[C@H](Cc1ccc2ccccc2c1)NC(=O)[C@H]1CC[C@H](CNC(=O)CN2CCN(CC(=O)O)CCN(CC(=O)O)CCN(CC(=O)O)CC2)CC1)C(=O)O)C(=O)O [Example 1-B, (3S,10S,14S)-3-[(naphthalen-2-yl)methyl]-1,4,12-trioxo-1-[(1r,4S)-4-({2-[4,7,10-tris(carboxymethyl)-1,4,7,10-tetraazacyclododecan-1-yl]acetamido}methyl)cyclohexyl]-2,5,11,13-tetraazahexadecane-10,14,16-tricarboxylic acid, reference compound] | 66% | 17% | –
8 | Nc1ccc(CC(=O)N[C@@H](Cc2ccc3ccccc3c2)C(=O)NCCCC[C@H](NC(=O)N[C@@H](CCC(=O)O)C(=O)O)C(=O)O)cc1 [Example 23-A, (4S,11S,15S)-1-(4-aminophenyl)-4-[(naphthalen-2-yl)methyl]-2,5,13-trioxo-3,6,12,14-tetraazaheptadecane-11,15,17-tricarboxylic acid] | 59% | 26% | –
9 | O=C(O)CC[C@H](NC(=O)N[C@@H](CCCCNC(=O)[C@@H](Cc1ccc2cnccc2c1)NC(=O)[C@H]1CC[C@H](CNC(=O)CN2CCN(CC(=O)O)CCN(CC(=O)O)CCN(CC(=O)O)CC2)CC1)C(=O)O)C(=O)O [Example 44-B, (3R,10S,14S)-3-[(isoquinolin-6-yl)methyl]-1,4,12-trioxo-1-[(1r,4S)-4-({2-[4,7,10-tris(carboxymethyl)-1,4,7,10-tetraazacyclododecan-1-yl]acetamido}methyl)cyclohexyl]-2,5,11,13-tetraazahexadecane-10,14,16-tricarboxylic acid] | 75% | 22% | –
10 | O=C(O)CC[C@H](NC(=O)N[C@@H](CCCCNC(=O)[C@H](Cc1ccc2ccccc2c1)NC(=O)[C@H]1CC[C@H](CNC(=O)COCC(=O)NCCOCCOCCOCCOCCOCCOCCOCCOCCOCCOCCOCCNC(=O)COCC(=O)Nc2ccc(CC(CN(CCNC(=O)c3ccn(CCO)c(=O)c3O)CCNC(=O)c3ccn(CCO)c(=O)c3O)CN(CCNC(=O)c3ccn(CCO)c(=O)c3O)CCNC(=O)c3ccn(CCO)c(=O)c3O)cc2)CC1)C(=O)O)C(=O)O [Example 1-PEG] | – | – | % remaining 3H-PSMA-617 @ 10 nM (mean) [1]: 80%; % remaining 3H-PSMA-617 @ 100 nM (mean) [2]: 41%
11 | O=C(O)CC[C@H](NC(=O)N[C@@H](CCCCNC(=O)[C@H](Cc1ccc2ccccc2c1)NC(=O)[C@H]1CC[C@H](CNC(=O)CN2CCN(CC(=O)O)CCN(CC(=O)O)CCN(CC(=O)O)CC2)CC1)C(=O)O)C(=O)O [PSMA-617, reference compound] | – | – | Non-specific binding: remaining binding of 3H-PSMA-617 in the presence of unlabeled PSMA-617 (unlabeled PSMA-617 at 5000 nM (500 fold excess), LNCaP cells): below 5%
12 | NC[C@H]1CC[C@H](C(=O)N[C@@H](Cc2ccc3ncccc3c2)C(=O)NCCCC[C@H](NC(=O)N[C@@H](CCC(=O)O)C(=O)O)C(=O)O)CC1 [Example 48-A, (3S,10S,14S)-1-[trans-4-(aminomethyl)cyclohexyl]-1,4,12-trioxo-3-[(quinolin-6-yl)methyl]-2,5,11,13-tetraazahexadecane-10,14,16-tricarboxylic acid] | 73% | 74% | –
13 | Nc1ccc(-c2ccn(CC(=O)N[C@@H](Cc3ccc4ccccc4c3)C(=O)NCCCC[C@H](NC(=O)N[C@@H](CCC(=O)O)C(=O)O)C(=O)O)n2)cc1 [Example 28-A, (4S,11S,15S)-1-[3-(4-aminophenyl)-1H-pyrazol-1-yl]-4-[(naphthalen-2-yl)methyl]-2,5,13-trioxo-3,6,12,14-tetraazaheptadecane-11,15,17-tricarboxylic acid] | 107% | 60% | –
14 | NC[C@H]1CC[C@H](C(=O)N[C@H](Cc2csc3ccc(Cl)cc23)C(=O)NCCCC[C@H](NC(=O)N[C@@H](CCC(=O)O)C(=O)O)C(=O)O)CC1 [Example 41-A, N^6—{N-[(1r,4S)-4-(aminomethyl)cyclohexane-1-carbonyl]-3-(5-chloro-1-benzothiophen-3-yl)-D-alanyl}-N^2-{[(1S)-1,3-dicarboxypropyl]carbamoyl}-L-lysine] | 82% | 61% | –
15 | O=C(O)CC[C@H](NC(=O)N[C@@H](CCCCNC(=O)[C@H](Cc1ccc2ccccc2c1)NC(=O)c1ccc(CNC(=O)CN2CCN(CC(=O)O)CCN(CC(=O)O)CCN(CC(=O)O)CC2)cc1)C(=O)O)C(=O)O [Example 24-B, (3S,10S,14S)-3-[(naphthalen-2-yl)methyl]-1,4,12-trioxo-1-[4-({2-[4,7,10-tris(carboxymethyl)-1,4,7,10-tetraazacyclododecan-1-yl]acetamido}methyl)phenyl]-2,5,11,13-tetraazahexadecane-10,14,16-tricarboxylic acid] | 59% | 6% | –
16 | NCc1ccc(C(=O)N[C@@H](Cc2cnc3ccccc3c2)C(=O)NCCCC[C@H](NC(=O)N[C@@H](CCC(=O)O)C(=O)O)C(=O)O)nc1 [Example 32-A, N^6—{N-[5-(aminomethyl)pyridine-2-carbonyl]-3-(quinolin-3-yl)-L-alanyl}-N^2-{[(1S)-1,3-dicarboxypropyl]carbamoyl}-L-lysine] | 84% | 46% | –
17 | NC[C@H]1CC[C@H](C(=O)N[C@@H](Cc2ccc(C3CCC3)cc2)C(=O)NCCCC[C@H](NC(=O)N[C@@H](CCC(=O)O)C(=O)O)C(=O)O)CC1 [Example 18-A, N^6—{N-[(1r,4S)-4-(aminomethyl)cyclohexane-1-carbonyl]-4-cyclobutyl-L-phenylalanyl}-N^2-{[(1S)-1,3-dicarboxypropyl]carbamoyl}-L-lysine] | 78% | 79% | –
18 | NC[C@H]1CC[C@H](C(=O)N[C@@H](Cc2cc3ccccc3cn2)C(=O)NCCCC[C@H](NC(=O)N[C@@H](CCC(=O)O)C(=O)O)C(=O)O)CC1 [Example 36-A, N^6—{N-[(1r,4S)-4-(aminomethyl)cyclohexane-1-carbonyl]-3-(isoquinolin-3-yl)-L-alanyl}-N^2-{[(1S)-1,3-dicarboxypropyl]carbamoyl}-L-lysine] | 98% | 73% | –
19 | CNc1cc(C[C@@H](NC(=O)[C@H]2CC[C@H](CNC(=O)CN3CCN(CC(=O)O)CCN(CC(=O)O)CCN(CC(=O)O)CC3)CC2)C(=O)NCCCC[C@H](NC(=O)N[C@@H](CCC(=O)O)C(=O)O)C(=O)O)cc2ccccc12 [Example 37-B, (3R,10S,14S)-3-{[4-(methylamino)naphthalen-2-yl]methyl}-1,4,12-trioxo-1-[(1r,4S)-4-({2-[4,7,10-tris(carboxymethyl)-1,4,7,10-tetraazacyclododecan-1-yl]acetamido}methyl)cyclohexyl]-2,5,11,13-tetraazahexadecane-10,14,16-tricarboxylic acid] | 55% | 11% | –

Reference: patent publication US20230072421A1, “TARGETED RADIOPHARMACEUTICALS FOR THE DIAGNOSIS AND TREATMENT OF PROSTATE CANCER” (Bayer AS, priority 2019, published 2023)
